Patent publication EP3628659A1, “SELENOESTER-CONTAINING COMPOUNDS FOR USE IN THE TREATMENT OF MICROBIAL INFECTIONS OR COLORECTAL CANCER” (Consejo Superior De Investigaciones Científicas, priority 2018, dated 2020)

Columns and labels:
[1] = tested on: Candida albicans; test: Antifungal activity (optical density), Candida albicans; format: cell-based; conditions: IC50 class, tested at 50, 100, 150 and 200 µM, OD 570 nm, 37 °C
Experimental: (§1) The compounds were tested for their antifungal and nematicidal properties against the fungi Candida albicans and Saccharomyces cerevisiae, and against the nematode Steinernema feltiae.
Fungal cell densities were determined by measuring the optical density (OD) at 570 nm at 0 h (first measurement immediately after incubation), 4 h, and 24 h after incubation at 37 °C; and using a Universal Microplate Reader, EL800, Biotech Instruments, Inc. Highland Park, Winooski, VT, USA. Compounds were dissolved in 1% DMSO and were tested at final concentrations of 50, 100, 150, and 200 µM. Nutrient Sabouraud Dextrose (SD), and Yeast Peptone Dextrose (YPD) were used as media for C. albicans, and S. cerevisiae, respectively. Ketoconazole was used as the positive control for C. albicans and S. cerevisiae. The growth culture with medium for each organism was used as the negative control. The Solvent 1% DMSO stock was used as a solvent control. All experiments were carried out in triplicate and on three different occasions (n = 9).
(§2) For the three organisms considered (C. albicans, S. cerevisiae and S. feltiae), the inhibitory concentration 50% (IC50) is defined as the concentration that inhibits the viability of the respective organism to a 50% of the viability determined for the negative control.

[2] = tested on: Escherichia coli AG100 A; test: MIC determination (CLSI), E. coli AG100 A; format: cell-based; conditions: MIC class
Experimental: The effects exerted by different concentrations of the compounds on bacterial growth in Staphylococcus aureus 25923 ATCC, Staphylococcus aureus multidrug resistant 272123 clinical isolate (MRSA), Escherichia coli AG100 or Escherichia coli AG100 A were tested in 96-well plates. The MIC of selenocompounds was determined according to Clinical and Laboratory Standard Institute (CLSI) guidelines. The solvent used (DMSO) had no antibacterial effect. Alternatively, the MICs of oxacillin of the compounds in MRSA HEMSA 5 were determined by a broth microdilution method in cation-adjusted Mueller-Hinton Broth (MHB II) according to the recommendations of the CLSI. Results were recorded after a 20- or 24-hour incubation at 37°C.

[3] = tested on: Colo 205 doxorubicin-sensitive; test: Cytotoxicity assay (MTT) in Colo 205 cells; format: cell-based, human; conditions: for IC50: Homo sapiens, COLO 205, 24 h, read-out: Colo 205 Cytotoxicity; for SI (MRC-5/Colo205): quotient of IC50 in MRC-5 and IC50 in Colo-205
Experimental: Cytotoxicity assays in human colonic adenocarcinoma cell lines Colo 205 doxorubicin-sensitive (ATCC-CCL-222) and Colo 320/MDR-LRP multidrug resistant overexpressing ABCB1 (MDR1)-LRP (ATCC-CCL-220.1) were performed following the procedure described by Gajdács et al, 2017, Bioorg Med Chem Lett. 27(4): 797-802. The effects of increasing concentrations of selenium compounds on cell growth were tested in 96-well flat-bottomed microtiter plates. The selectivity of the action towards cancer cells was assessed through the evaluation of cytotoxic activity in a non-tumoral cell line, the MRC-5 human embryonal lung fibroblast cell lines (ATCC CCL-171), as described in Gajdács et al, 2017, Bioorg Med Chem Lett. 27(4): 797-802.
All cell lines were purchased from LGC Promochem, Teddington, UK. The colonic cells were cultured in RPMI 1640 medium supplemented with 10% heat-inactivated fetal bovine serum, 2 mM L-glutamine, 1 mM Na-pyruvate and 100 mM Hepes. The cell lines were incubated at 37°C, in a 5% CO2, 95% air atmosphere. The semi-adherent human colon cancer cells were detached with Trypsin-Versene (EDTA) solution for 5 min at 37°C. Alternatively, MRC-5 cells was cultured in Eagle's Minimal Essential Medium (EMEM, containing 4.5 g/L glucose) supplemented with a non-essential amino acid mixture, a selection of vitamins and 10% heat-inactivated fetal bovine serum. The cell lines were incubated at 37°C, in a 5% CO2, 95% air atmosphere.
The compounds were diluted in a volume of 100 µL of medium. The two-fold serial dilutions of selenocompounds were prepared in 100 µL of RPMI 1640, horizontally. The semi-adherent colonic adenocarcinoma cells were treated with Trypsin-Versene (EDTA) solution. They were adjusted to a density of 2×10^4 cells in 100 µL of RPMI 1640 medium, and were added to each well, with the exception of the medium control wells. The final volume of the wells containing selenocompounds and cells was 200 µL.
The culture plates were incubated at 37°C for 24 h; at the end of the incubation period, 20 µL of MTT (thiazolyl blue tetrazolium bromide, Sigma) solution (from a stock solution of 5 mg/mL) were added to each well. After incubation at 37°C for 4 h, 100 µL of sodium dodecyl sulfate (SDS) (Sigma) solution (10% in 0.01 M HCI) were added to each well and the plates were further incubated at 37°C overnight. Cell growth was determined by measuring the optical density (OD) at 540/630 nm with Multiscan EX ELISA reader (Thermo Labsystems, Cheshire, WA, USA). Inhibition of the cell growth was determined according to the formula below: […] = 100−[(OD sample−OD medium control)/(OD cell control−OD medium control)] × 100 [formula]
Results are expressed in terms of IC50, defined as the inhibitory dose that reduces the growth of the cells exposed to the tested compounds by 50%. Regarding the selectivity, the selectivity indexes (SI) were calculate, being SI the quotient of the IC50 in non-tumoral cells (MRC-5) and the respective cancer cell (Colo-205 or Colo-320). Compound is considered moderately selective when SI < 6 and ≥ 3; and strongly selective when SI ≥ 6.

[4] = tested on: Steinernema feltiae; test: Nematicidal activity (viability count), Steinernema feltiae; format: in vivo; conditions: IC50 class, tested at 50, 100, 150 and 200 µM, viability at 24 h
Experimental: as §1
The soil nematodes S. feltiae were purchased from Sautter and Stepper GmbH (Ammerbuch, Germany) and stored at 4 °C in the dark. Before each experiment, fresh samples of nematodes were purchased and stored in the fridge upon arrival and used for a maximum of six days. To perform the assay, 200 mg of nematodes was reconstituted in 50 mL of phosphate buffered saline (PBS) (pH = 7.4) to form a homogenous suspension to revive the nematodes. Afterwards, the individual suspensions were allowed to rest at room temperature. The sedimentation was avoided with occasional shaking in moderate light and at room temperature (25 °C) for 30 min. Viability of the nematodes was determined by counting the live and dead nematodes under a light microscope (TR 200, VWR International, Leuven, Belgium) at four-fold magnification. An initial viability value of more than 90 percent was considered necessary to perform the experiments.
Sample solutions were added into the wells of a 96-well plate to achieve at final concentrations of 50,100, 150, and 200 µM. Afterwards, 10 µL of nematode suspension was added to each well and the final volume in each well was adjusted to 100 µL with phosphate buffered saline (PBS) (pH = 7.4). PBS was used in the negative control and ethanol in the positive control. Viability was determined at 0 h and 24 h by counting the live and dead nematodes, whereby 50 µL of lukewarm water (40 °C) were added to each well to stimulate the nematodes for the 24 h reading. Each experiment was performed independently in triplicate and on three different occasions (n = 9).
as §2

SMILES	IC50 [1]	Antibacterial activity Against E. coli AG100 A [2]	IC50 [3]	SI (MRC-5/Colo205) [3]	IC50 [4]
CC(=O)C[Se]C(=O)c1ccc(C(=O)[Se]CC(C)=O)cc1 [Compound 22, Se,Se-bis-(2-oxopropyl) benzene-1,4-bis-(carboselenoate)]	10 to 50 µM	** (Moderate antibacterial compounds: 10 µM < MIC ≤ 50 µM)	< 1 µM	* (Slightly selective compounds: 1 ≤ SI < 3)	50 to 100 µM
N#CC[Se]C(=O)c1cc(C(=O)[Se]CC#N)cc(C(=O)[Se]CC#N)c1 [Compound 20, Se,Se,Se-tris-(cyanomethyl) benzene-1,3,5-tris-(carboxyselenoate)]	10 to 50 µM	NA (Not antibacterial compounds: MIC ≥ 100 µM)	< 1 µM	*** (Strongly selective compounds: SI ≥ 6)	> 100 µM
N#CC[Se]C(=O)c1cccc(C(=O)[Se]CC#N)c1 [Compound 19, Se,Se-bis-(cyanomethyl)benzene-1,3-bis-(carboselenoate)]	10 to 50 µM	NA (Not antibacterial compounds: MIC ≥ 100 µM)	1 to 10 µM	*** (Strongly selective compounds: SI ≥ 6)	10 to 50 µM
N#CC[Se]C(=O)c1ccc(C(=O)[Se]CC#N)cc1 [Compound 18, Se,Se-bis-(cyanomethyl) benzene-1,4-bis-(carboselenoate)]	50 to 100 µM	** (Moderate antibacterial compounds: 10 µM < MIC ≤ 50 µM)	1 to 10 µM	*** (Strongly selective compounds: SI ≥ 6)	10 to 50 µM
CC(=O)C[Se]C(=O)c1cc(C(=O)[Se]CC(C)=O)cc(C(=O)[Se]CC(C)=O)c1 [Compound 24, Se,Se,Se-tris-(2-oxopropyl) benzene-1,3,5-tris-(carboxyselenoate)]	> 100 µM	** (Moderate antibacterial compounds: 10 µM < MIC ≤ 50 µM)	< 1 µM	* (Slightly selective compounds: 1 ≤ SI < 3)	> 100 µM
CC(=O)C[Se]C(=O)c1cccc(C(=O)[Se]CC(C)=O)c1 [Compound 23, Se,Se-bis-(2-oxopropyl) benzene-1,3-bis-(carboselenoate)]	10 to 50 µM	** (Moderate antibacterial compounds: 10 µM < MIC ≤ 50 µM)	< 1 µM	* (Slightly selective compounds: 1 ≤ SI < 3)	> 100 µM
